From article PMC11472313, “Development of Fragment-Based Inhibitors of the Bacterial Deacetylase LpxC with Low Nanomolar Activity” (Journal of Medicinal Chemistry, 2024)
Values after ≈ are worked out from the molar mass of the structure shown. Values joined by “and” are separate entries in the source; they are usually repeats but may differ in a detail not shown here. Equal entries are not always repeated.

Experiments:
E. coli BL21(DE3) [1] = assay: disc diffusion assay; format: cell-based; settings: 0.15 μmol per 6 mm disc
E. coli D22 [2] = assay: disc diffusion assay; format: cell-based; settings: 0.15 μmol per 6 mm disc
E. coli BL21(DE3) [3] = assay: MIC, broth microdilution; format: cell-based; settings: 20 h, 37 °C, LB; for MIC: Escherichia coli
Outline: (§1)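 LB broth microdilution, inoculum 5 × 10^5 cfu mL^–1, 5% DMSO, 2-fold compound series 64–0.016 μg mL^–1 final, incubated 20 h at 37 °C. MIC was the lowest concentration preventing visible growth, from at least three runs on separate days.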

E. coli D22 [4] = assay: MIC, broth microdilution; format: cell-based; settings: Escherichia coli, 20 h, 37 °C, LB
Outline: as §1

[5] = system: K. pneumoniae ATCC 700603; assay: disc diffusion assay; format: cell-based, Klebsiella pneumoniae; settings: 0.15 μmol per 6 mm disc
Procedure: (§2) In the performed disc diffusion assays, indole derivatives (S)-13h, (S)-13i, and (S)-13j caused promising halos of growth inhibition.
(§3) The disc diffusion assays against E. coli TOP10 (Thermo Fisher, Waltham, USA), E. coli ATCC 35218, K. pneumoniae ATCC 700603, and P. aeruginosa ATCC 27853 were performed as follows: the bacteria were grown overnight on a Columbia blood agar plate (Oxoid, Basingstoke, UK), and one colony was suspended in sterile saline to yield a suspension of 0.5 McFarland standard. Using a sterile swab, the suspension was spread evenly onto Mueller–Hinton agar (Oxoid, Basingstoke, UK). 0.15 μmol of each compound (dissolved in 10 μL DMSO) was applied onto circular 6 mm diameter filter paper disks, which were then placed on the agar. After incubating the agar plates for 20 h at 37 °C, the diameter of the zone of growth inhibition was measured for each compound.

E. coli TOP10 = assay: disc diffusion assay; format: cell-based; settings: 0.15 μmol per 6 mm disc
Procedure: as §2, §3

E. coli ATCC 35218 = assay: disc diffusion assay; format: cell-based; settings: 0.15 μmol per 6 mm disc
Procedure: as §2, §3

P. aeruginosa ATCC 27853 = assay: disc diffusion assay; format: cell-based; settings: 0.15 μmol per 6 mm disc
Procedure: as §2, §3

E. coli LpxC C63A = target: T1, E. coli LpxC C63A (Escherichia coli, UniProt P0A725, C63A); assay: fluorescence-based E. coli LpxC C63A enzyme inhibition assay; format: biochemical; settings: Ki E. coli LpxC C63A, from IC50 via Cheng–Prusoff
T1 construct: made in house; host or cells: E. coli BL21(DE3)
T1 sequence (P0A725 whole entry C63A): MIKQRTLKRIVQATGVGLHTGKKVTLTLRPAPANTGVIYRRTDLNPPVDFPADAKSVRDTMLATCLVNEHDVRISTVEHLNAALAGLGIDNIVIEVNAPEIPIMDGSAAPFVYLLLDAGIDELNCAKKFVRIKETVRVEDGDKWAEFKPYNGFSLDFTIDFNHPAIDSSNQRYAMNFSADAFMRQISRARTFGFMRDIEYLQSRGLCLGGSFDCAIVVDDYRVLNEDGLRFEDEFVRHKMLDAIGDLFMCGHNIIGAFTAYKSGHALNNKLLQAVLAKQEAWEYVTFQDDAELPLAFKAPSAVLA
Outline: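 Purified E. coli LpxC C63A (15 nM) was incubated with 25 µM UDP-3-O-[(R)-3-hydroxymyristoyl]-GlcNAc in MES pH 6.0 buffer (2% DMSO) for 30 min at 37 °C. Compounds ranged from 20 nM to 20 µM. Product was derivatized with o-phthaldialdehyde/2-mercaptoethanol and read by fluorescence (ex 340/em 460), with IC50 converted to Ki via Cheng–Prusoff.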

LasB = target: T2, LasB (Pseudomonas aeruginosa, UniProt Q02RJ6); assay: FRET-based LasB in vitro inhibition assay; format: biochemical, P. aeruginosa PA14; settings: for inhibition at 20 µM: read-out: LasB Inhibition at 20 μM
T2 construct: The elastase LasB of P. aeruginosa is a secreted metalloprotease; endogenous in cells; host or cells: P. aeruginosa PA14 culture supernatant
T2 sequence (Q02RJ6 198-498): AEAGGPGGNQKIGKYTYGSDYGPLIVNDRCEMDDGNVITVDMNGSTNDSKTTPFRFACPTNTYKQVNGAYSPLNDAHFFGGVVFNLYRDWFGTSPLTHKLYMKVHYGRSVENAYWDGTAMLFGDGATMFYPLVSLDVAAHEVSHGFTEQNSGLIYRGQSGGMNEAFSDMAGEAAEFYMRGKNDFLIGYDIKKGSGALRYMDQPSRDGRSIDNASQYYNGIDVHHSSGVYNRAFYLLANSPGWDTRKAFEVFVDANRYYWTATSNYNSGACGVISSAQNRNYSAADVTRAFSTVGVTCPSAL
Outline: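 FRET-based inhibition assay using LasB purified from P. aeruginosa PA14 culture supernatant; fluorescence read-out.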

Row | Structure (SMILES) | Inhibition zone E. coli BL21(DE3) (E. coli BL21(DE3) [1]) | Inhibition zone E. coli D22 (E. coli D22 [2]) | MIC E. coli BL21(DE3) (E. coli BL21(DE3) [3]) | MIC (E. coli BL21(DE3) [3]) | MIC (E. coli D22 [4]) | Inhibition zone K. pneumoniae ATCC 700603 [5] | Inhibition zone E. coli TOP 10 (E. coli TOP10) | Inhibition zone E. coli ATCC 35218 (E. coli ATCC 35218) | Inhibition zone P. aeruginosa ATCC 27853 (P. aeruginosa ATCC 27853) | Ki (E. coli LpxC C63A) | LasB Inhibition at 20 μM (LasB) | inhibition at 20 µM (LasB) | IC50 (LasB)
1 | O=C(NC[C@H](OCc1ccc(C#Cc2ccc(CN3CCOCC3)cc2)cc1)C(=O)NO)c1c[nH]c2ccccc12 [(S)-13h] | 19.7 ± 1.6 mm | 29.3 ± 1.6 mm | 1.0 µg/mL (≈ 1.81 µM) | 1 to 4 µg/mL (≈ 1.81 to 7.24 µM) | 0.031 µg/mL (≈ 0.0561 µM) | 6.7 ± 1.2 mm | 18.7 ± 5.8 mm | 19.0 ± 1.0 mm | 7.0 ± 1.0 mm | 0.0107 ± 0.0012 µM | little to no inhibitory activity | 25.2 ± 5.6% | 
2 | O=C(NC[C@H](OCc1ccc(C#Cc2ccc(CN3CCOCC3)cc2)cc1)C(=O)NO)c1ccc2[nH]ccc2c1 [(S)-13j] | 20.0 ± 1.0 mm | 29.0 ± 1.6 mm | 2.0 µg/mL (≈ 3.62 µM) | 1 to 4 µg/mL (≈ 1.81 to 7.24 µM) | 0.031 µg/mL (≈ 0.0561 µM) | 8.0 ± 1.7 mm | 22.3 ± 3.8 mm | 21.0 ± 1.0 mm | 8.3 ± 0.6 mm | 0.0095 µM and 0.00945 µM | little to no inhibitory activity | < 10% | 
3 | O=C(NC[C@H](OCc1ccc(C#Cc2ccc(CN3CCOCC3)cc2)cc1)C(=O)NO)c1ccc[nH]1 [(S)-13k] | 23.3 ± 0.6 mm | >30 mm | 4.0 µg/mL (≈ 7.96 µM) | 4 to 8 µg/mL (≈ 7.96 to 15.9 µM) | 0.063 µg/mL (≈ 0.125 µM) | 9.5 ± 0.7 mm | 27.0 ± 2.8 mm | 23.0 ± 1.4 mm | 9.0 ± 1.4 mm | 0.0971 ± 0.0094 µM |  | 22.4 ± 3.1% | 
4 | O=C(NC[C@H](OCc1ccc(C#Cc2ccc(CN3CCOCC3)cc2)cc1)C(=O)NO)c1cc[nH]n1 [(S)-13l] | 24.7 ± 0.6 mm | >30 mm | 4.0 µg/mL (≈ 7.94 µM) | 4 to 8 µg/mL (≈ 7.94 to 15.9 µM) | 0.063 µg/mL (≈ 0.125 µM) | 11.5 ± 0.7 mm | 30.5 ± 0.7 mm | 25.5 ± 0.7 mm | 12.0 ± 0 mm | 0.0809 ± 0.009 µM | little to no inhibitory activity | 11.6 ± 0.7% | 
5 | O=C(NC[C@H](OCc1ccc(C#Cc2ccc(CN3CCOCC3)cc2)cc1)C(=O)NO)c1cc(-c2ccccc2)[nH]n1 [(S)-13m] | 11.3 ± 1.6 mm | 24.5 ± 1.8 mm | 8.0 µg/mL (≈ 13.8 µM) | 4 to 8 µg/mL (≈ 6.9 to 13.8 µM) | 0.063 µg/mL (≈ 0.109 µM) | <6 mm | 14.7 ± 0.6 mm | 13.0 ± 1.7 mm | <6 mm | 0.0852 ± 0.0217 µM | little to no inhibitory activity | < 10% | 
6 | Cc1noc(C)c1C(=O)NC[C@H](OCc1ccc(C#Cc2ccc(CN3CCOCC3)cc2)cc1)C(=O)NO [(S)-13n] | 20.8 ± 1.1 mm | >30 mm |  | 16 µg/mL (≈ 30 µM) | 0.13 µg/mL (≈ 0.244 µM) | 7.0 ± 1.0 mm | 24.0 ± 0 mm | 20.0 ± 1.7 mm | <6 mm | 0.127 ± 0.04 µM |  | 92.7 ± 0.7% | 1.8 ± 0.15 µM
